# Laboratory results as given in US7772228B2, “Method for treatment of bacterial infections with once or twice-weekly administered rifalazil” (priority 1998, dated 2010).
# Read-outs that look alike come from different tables or passages of the source.
# Experiments:
# [1] = system: M. tuberculosis strain Erdman; details: cited from earlier work; for reduction of bacterial load in lungs and spleens, comparison of drugs: 20 mg/kg, five times per week for four weeks
# M. tuberculosis [2] = details: 22 strains, agar dilution; cited from earlier work
# M. tuberculosis [3] = details: BACTEC, cited from earlier work; for MIC50 50% inhibition / MIC90 90% inhibition: thirty clinical isolates
# [4] = system: M. tuberculosis in human macrophages; details: intracellular, cited from earlier work
# M. avium = details: 18 strains, agar dilution; cited from earlier work
# [5] = system: extracellular M. tuberculosis; details: cited from earlier work
# Helicobacter pylori = system: Helicobacter pylori; parameters: unit of the concentration uncertain; details: time-kill, broth medium, 0.31 (unit uncertain); cited from earlier work
# [6] = Clinical trial 005, WBC, ANC and platelet counts in tuberculosis patients; format: in vivo, human; details: INH daily
# Procedure: (§1) Definite diagnosis and evaluation of treatment efficacy requires direct examination of sputum for the presence of M. tuberculosis. The extent of M. tuberculosis infection is determined by number of bacteria able to form colonies and is expressed as colony forming units. When the number of colony forming units (CFU) is high, the infection is unhindered. When the CFU decreases, the number of active M. tuberculosis bacteria decreases. The CFU, typically expressed as Log10, have therefore important diagnostic and treatment evaluative value.
# The four tables 17-20 show hematology data which are separated according to Groups 1-4. The group treatment corresponds to those seen in Table 16. […] In particular, the ANC value is considered to be a very meaningful safety index as it directly relates to a patient's ability to fight infection.
# (§2) The overall clinical studies and conditions were similar to those described in Example 1. Due to ethical considerations, there were no placebo (control) patients in this study. […] Both latest regimens were experimental and performed under IND permit from FDA.
# M. tuberculosis [7] = assay: Clinical trial 005, change in Log10 CFU/mL of sputum of tuberculosis patients; format: in vivo, human; details: INH 400 mg daily, N 6
# Procedure: Dosages of isoniazid and rifampin were adjusted to body weight of patients. […] When the patient's body weight was greater than 45 kg, isoniazid was administered as 600 mg/dose.
# as §1
# Dosages of isoniazid and rifampin depended on the patient's weight and were as above. The number of patients in each study group are presented as the N value.
# as §2
# [8] = in vivo; cited from earlier work
smiles,measurement,setting,value
"CO[C@H]1/C=C/O[C@@]2(C)Oc3c(C)c(O)c4c(O)c(c(/C=N/N5CCN(C)CC5)c(O)c4c3C2=O)NC(=O)/C(C)=C\C=C\[C@H](C)[C@H](O)[C@@H](C)[C@@H](O)[C@@H](C)[C@H](OC(C)=O)[C@@H]1C [Rifampin, rifampin, reference compound]","reduction of bacterial load in lungs and spleens, comparison of drugs",[1],No significant differences
same,MIC90,M. tuberculosis [2],100 µg/mL
same,MIC,M. tuberculosis [3]; reference strain Kurono,0.063 µg/mL
same,MIC50 50% inhibition,M. tuberculosis [3],4.0 µg/mL
same,MIC90 90% inhibition,M. tuberculosis [3],>128.0 µg/mL
same,MBC,[4]; strain Atencio,0.5 µg/mL
same,MIC,[4]; strain Atencio,0.25 µg/mL
same,MBC,[4]; strain Erdman,0.5 µg/mL
same,MIC,[4]; strain Erdman,0.12 µg/mL
same,MBC,[4]; strain H37Rv,1.0 µg/mL
same,MIC,[4]; strain H37Rv,0.25 µg/mL
same,MIC90,M. avium,100 µg/mL
same,MBC,[5]; strain Atencio,0.25 µg/mL
same,MIC,[5]; strain Atencio,0.25 µg/mL
same,MBC,[5]; strain Erdman,0.5 µg/mL
same,MIC,[5]; strain Erdman,0.12 µg/mL
same,MBC,[5]; strain H37Rv,0.5 µg/mL
same,MIC,[5]; strain H37Rv,0.12 µg/mL
C[C@H]1COc2c(N3CCN(C)CC3)c(F)cc3c(=O)c(C(=O)O)cn1c23 [LEV],cell counts in lungs compared to late controls,[1]; four weeks treatment,reduced cell counts in lungs
"NC(=O)c1cnccn1 [PZA, pyrazinamide]",CFUs in the spleen,"[1]; rifalazil 20 mg/kg, PZA 150 mg/kg, four weeks",did not significantly reduce CFUs compared to controls
"CC1(C)S[C@@H]2[C@H](NC(=O)[C@H](N)c3ccc(O)cc3)C(=O)N2[C@H]1C(=O)O [amoxicillin, reference compound]",decrease in CFU/mL after 24 hours,Helicobacter pylori,1 log
"CC[C@@H](CO)NCCN[C@@H](CC)CO [EMB, ethambutol]",cell counts in lungs compared to late controls,[1]; four weeks treatment,reduced cell counts in lungs
"NNC(=O)c1ccncc1 [INH, isoniazid]",cell counts in lungs compared to early controls,[1]; four weeks treatment,significantly reduced cell counts in lungs
same,cell counts in lungs compared to late controls,[1]; four weeks treatment,reduced cell counts in lungs
same,ANC Max,[6]; Day 4,22.51 K/CU MM
same,ANC Mean (SD),[6]; Day 4,7.62 K/CU MM
same,ANC Med,[6]; Day 4,5.47 K/CU MM
same,ANC Min,[6]; Day 4,3.79 K/CU MM
same,Platelets Max,[6]; Day 4,431.70 K/CU MM
same,Platelets Mean (SD),[6]; Day 4,309.38 K/CU MM
same,Platelets Med,[6]; Day 4,305.56 K/CU MM
same,Platelets Min,[6]; Day 4,153.70 K/CU MM
same,WBC Max,[6]; Day 4,27.19 K/CU MM
same,WBC Mean (SD),[6]; Day 4,10.88 K/CU MM
same,WBC Med,[6]; Day 4,8.81 K/CU MM
same,WBC Min,[6]; Day 4,6.37 K/CU MM
same,ANC Max,[6]; Day 8,9.32 K/CU MM
same,ANC Mean (SD),[6]; Day 8,5.96 K/CU MM
same,ANC Med,[6]; Day 8,5.22 K/CU MM
same,ANC Min,[6]; Day 8,3.34 K/CU MM
same,Platelets Max,[6]; Day 8,396.20 K/CU MM
same,Platelets Mean (SD),[6]; Day 8,310.13 K/CU MM
same,Platelets Med,[6]; Day 8,357.20 K/CU MM
same,Platelets Min,[6]; Day 8,185.60 K/CU MM
same,WBC Max,[6]; Day 8,12.06 K/CU MM
same,WBC Mean (SD),[6]; Day 8,9.08 K/CU MM
same,WBC Med,[6]; Day 8,8.63 K/CU MM
same,WBC Min,[6]; Day 8,6.21 K/CU MM
same,ANC Max,[6]; Day 11,6.57 K/CU MM
same,ANC Mean (SD),[6]; Day 11,5.29 K/CU MM
same,ANC Med,[6]; Day 11,5.06 K/CU MM
same,ANC Min,[6]; Day 11,4.17 K/CU MM
same,Platelets Max,[6]; Day 11,447.50 K/CU MM
same,Platelets Mean (SD),[6]; Day 11,336.10 K/CU MM
same,Platelets Med,[6]; Day 11,354.20 K/CU MM
same,Platelets Min,[6]; Day 11,208.10 K/CU MM
same,WBC Max,[6]; Day 11,10.03 K/CU MM
same,WBC Mean (SD),[6]; Day 11,8.29 K/CU MM
same,WBC Med,[6]; Day 11,8.10 K/CU MM
same,WBC Min,[6]; Day 11,7.27 K/CU MM
same,ANC Max,[6]; Day 15,8.84 K/CU MM
same,ANC Mean (SD),[6]; Day 15,5.95 K/CU MM
same,ANC Med,[6]; Day 15,6.04 K/CU MM
same,ANC Min,[6]; Day 15,3.51 K/CU MM
same,Platelets Max,[6]; Day 15,412.70 K/CU MM
same,Platelets Mean (SD),[6]; Day 15,298.59 K/CU MM
same,Platelets Med,[6]; Day 15,302.00 K/CU MM
same,Platelets Min,[6]; Day 15,184.60 K/CU MM
same,WBC Max,[6]; Day 15,12.40 K/CU MM
same,WBC Mean (SD),[6]; Day 15,9.23 K/CU MM
same,WBC Med,[6]; Day 15,8.49 K/CU MM
same,WBC Min,[6]; Day 15,6.82 K/CU MM
same,ANC Max,[6]; Day 28,7.87 K/CU MM
same,ANC Mean (SD),[6]; Day 28,5.63 K/CU MM
same,ANC Med,[6]; Day 28,4.60 K/CU MM
same,ANC Min,[6]; Day 28,4.41 K/CU MM
same,Platelets Max,[6]; Day 28,398.80 K/CU MM
same,Platelets Mean (SD),[6]; Day 28,297.27 K/CU MM
same,Platelets Med,[6]; Day 28,266.00 K/CU MM
same,Platelets Min,[6]; Day 28,197.00 K/CU MM
same,WBC Max,[6]; Day 28,11.15 K/CU MM
same,WBC Mean (SD),[6]; Day 28,8.31 K/CU MM
same,WBC Med,[6]; Day 28,7.06 K/CU MM
same,WBC Min,[6]; Day 28,6.70 K/CU MM
same,ANC Max,[6]; Day 42,7.2 K/CU MM
same,ANC Mean (SD),[6]; Day 42,6.96 K/CU MM
same,ANC Med,[6]; Day 42,6.96 K/CU MM
same,ANC Min,[6]; Day 42,6.72 K/CU MM
same,Platelets Max,[6]; Day 42,345.00 K/CU MM
same,Platelets Mean (SD),[6]; Day 42,297.10 K/CU MM
same,Platelets Med,[6]; Day 42,297.10 K/CU MM
same,Platelets Min,[6]; Day 42,249.20 K/CU MM
same,WBC Max,[6]; Day 42,9.23 K/CU MM
same,WBC Mean (SD),[6]; Day 42,7.98 K/CU MM
same,WBC Med,[6]; Day 42,7.98 K/CU MM
same,WBC Min,[6]; Day 42,6.73 K/CU MM
same,"Change from Sputum Baseline to Day 15, Max",M. tuberculosis [7],−0.92 Log10 CFU/mL
same,"Change from Sputum Baseline to Day 15, Mean (SD)",M. tuberculosis [7],−1.58 Log10 CFU/mL
same,"Change from Sputum Baseline to Day 15, Med",M. tuberculosis [7],−1.63 Log10 CFU/mL
same,"Change from Sputum Baseline to Day 15, Min",M. tuberculosis [7],−2.23 Log10 CFU/mL
"CO[C@H]1/C=C/O[C@@]2(C)Oc3c(C)c(O)c4c(c3C2=O)C2=NC3(CCN(CC(C)C)CC3)NC2=C(NC(=O)/C(C)=C\C=C\[C@H](C)[C@H](O)[C@@H](C)[C@@H](O)[C@@H](C)[C@H](OC(C)=O)[C@@H]1C)C4=O [Rifabutin, rifabutin, reference compound]","reduction of bacterial load in lungs and spleens, comparison of drugs",[1],No significant differences
same,MIC,M. tuberculosis [3]; reference strain H37Rv,0.016 µg/mL
same,MIC,M. tuberculosis [3]; reference strain Kurono,0.016 µg/mL
same,MIC50 50% inhibition,M. tuberculosis [3],0.063 µg/mL
same,MIC90 90% inhibition,M. tuberculosis [3],8.0 µg/mL
same,adverse reactions at high doses,[8],generalized arthralgia and uveitis occurred
same,incidence of neutropenia,[8],significantly greater than in patients treated with placebo
same,skin discoloration,[8],< 1%
